We go through one compound from US10959968B2, “Methods for treating c-Met-dependent cancers” (Board of Supervisors of Louisiana State University and …, priority 2016, dated 2021).

Molecules are shown by their SMILES. Entries after “also recorded” stand apart in the source; their conditions may differ.

The test system of data set [1] is DU145 human prostate cancer cells. Put plainly: Cell scattering in 2D monolayer cultures. The data set is classed as cell-based. The note with it: 16 h, listed as HVS. As to the method:
(§1) FIG. 6. (A) Effect of HVS on HGF-induced migration of the highly metastatic MDA-MB-231 human breast cancer cells in wound healing assay. […] Vertical bars indicate the percentage of wound closure at 24 h after wounding, calculated relative to the wound distance at zero time±SEM of N=6 in each treatment group. SU11274 and (−)-oleocanthal were used as positive controls at 10 μM. Right panel represents photomicrographs of wound healing assay showing HVS treatment at three different concentrations (1.25, 2.5, and 5 μM) blocked the migration of MDA-MB-231 cells in response to HGF stimulation, as compared to DMSO as a vehicle control. (B) Effect of HVS on HGF-induced cell invasion of the highly aggressive MDA-MB-231 human breast cancer cells using Cultrex® BME cell invasion assay. The cells were treated with different concentrations of HVS for 24 h. Vertical bars indicate the percentage of cells invading the basement membrane at the end of treatment period±SEM of N=3 in each treatment group. (−)-Oleocanthal was used as a positive control at 20 μM dose.*P<0.05 as compared with vehicle-treated control. (C) Effect of HVS on HGF-induced scattering of the DU145 human prostate cancer cells in 2D monolayer cultures, compared to DMSO as vehicle control. Cells were treated with indicated concentrations of HVS for 30 minutes in serum-free media. […]

In data set [2] the test system is MDA-MB-231 breast cancer cells. Put plainly: LDH cytotoxicity assay. The note with it: MDA-MB-231 cells; 50 μM and 100 μM. The data set is classed as cell-based, human. On the procedure: FIG. 3. (A) Effect of HVS treatment on HGF-stimulated growth of Met-dependent MDA-MB-231, MDA-MB-468, MCF-7. and BT-474 breast cancer cells after 72 h treatment period, compared to DMSO as vehicle control. Viable cell count was determined using MTT assay. Vertical bars indicate the mean cell count±SEM of N=3 in each treatment group; (−)-oleocanthal was used as a positive control at 20 μM. (B) Effect of HVS treatment on HGF-stimulated growth of Met-independent T-47D breast cancer cells after 72 h treatment period. Viable cell count was determined using MTT assay. Vertical bars indicate the mean cell count±SEM of N=3 in each treatment group. […] Triton X-100 was used as a positive control to cause the breakdown of all the cells and induce the total possible LDH release. (D) Effects of HVS treatment on the viability of non-tumorigenic human MCF10A mammary epithelial cells after a 24 h treatment period, compared to DMSO as vehicle control. (E) As in panel (A) but without HGF. […] Viable cell count was determined using MTT assay. Vertical bars indicate the mean cell count±SEM of N=3 in each treatment group; doxorubicin was used as a positive control at 10 μM dose. *P<0.05 as compared with vehicle treated control.
[…]. Selection of the aforementioned breast cancer cells was based on their phenotypes. […]

For data set [3], the system named is T-47D breast cancer cells. Description: HGF-stimulated growth of Met-independent cells, MTT assay. The data set is classed as cell-based, human. The note with it: similar treatment doses; 72 h. On the procedure:
FIG. 3. (A) Effect of HVS treatment on HGF-stimulated growth of Met-dependent MDA-MB-231, MDA-MB-468, MCF-7. and BT-474 breast cancer cells after 72 h treatment period, compared to DMSO as vehicle control. Viable cell count was determined using MTT assay. Vertical bars indicate the mean cell count±SEM of N=3 in each treatment group; (−)-oleocanthal was used as a positive control at 20 μM. (B) Effect of HVS treatment on HGF-stimulated growth of Met-independent T-47D breast cancer cells after 72 h treatment period. Viable cell count was determined using MTT assay. Vertical bars indicate the mean cell count±SEM of N=3 in each treatment group. (C) Cytotoxic effects of HVS on the highly metastatic MDA-MB-231 breast cancer cells at two different concentrations (30 and 60 μM) using LDH cytotoxicity assay. Triton X-100 was used as a positive control to cause the breakdown of all the cells and induce the total possible LDH release. (D) Effects of HVS treatment on the viability of non-tumorigenic human MCF10A mammary epithelial cells after a 24 h treatment period, compared to DMSO as vehicle control. (E) As in panel (A) but without HGF. […] Viable cell count was determined using MTT assay. Vertical bars indicate the mean cell count±SEM of N=3 in each treatment group; doxorubicin was used as a positive control at 10 μM dose. *P<0.05 as compared with vehicle treated control.
[…]. […]
A general note: Tetrazolium assays rely on reduction of a dye to a coloured formazan, in cell work by metabolically active cells.

The test system of data set [4] is MDA-MB-231 human breast cancer cells. Put plainly: Wound healing assay, HGF-induced migration. The data set is classed as cell-based. The note with it: wound closure at 24 h. As to the method:
as §1

Data set [5] addresses MST1R (RON0 (Homo sapiens, UniProt Q04912)). Put plainly: SelectScreen Kinase Profiling. In kind it is biochemical. The note with it: read-out: Mean inhibition at 10 μM of HVS (%).
The subject of data set [6] is MDA-MB231 spheroids. Put plainly: 3D spheroid growth, IncuCyte. The data set is classed as cell-based, human. The note with it: Homo sapiens, MDA-MB-231, 10 micromolar, up to 72 hours. On the procedure:
FIG. 9. (A). MDA-MB231 cells were grown in 10% FBS DMEM. Cells were collected after trypsinization and resuspended in phenol-red free DMEM with 10% FBS. Cells were labeled with CellTracker Red (Life Technologies) for 5 minutes. After labeling cells were washed with PBS and transfer into 96-well Corning 7007 ULA round bottom plates at 1,000 cells/well in 100 μl phenol-red free media with 10% FBS and 5% Matrigel. […] Spheroids were grown at 37° C. and 5% CO2 in IncuCyte ZOOM (Essen Bioscience). Images were acquired every 4 h for a period of 72 h post-treatment. The data were expressed as fold increase in spheroids size at the end of the treatment using the “average red object area in the well” as determined by the IncuCyte software analysis.
MDA-MB231 spheroids were all allowed to form and treated with compounds for up to 72 hours. Images were captured using the Incucyte platform.

Sequence of MST1R (RON0 (Q04912 25-1400): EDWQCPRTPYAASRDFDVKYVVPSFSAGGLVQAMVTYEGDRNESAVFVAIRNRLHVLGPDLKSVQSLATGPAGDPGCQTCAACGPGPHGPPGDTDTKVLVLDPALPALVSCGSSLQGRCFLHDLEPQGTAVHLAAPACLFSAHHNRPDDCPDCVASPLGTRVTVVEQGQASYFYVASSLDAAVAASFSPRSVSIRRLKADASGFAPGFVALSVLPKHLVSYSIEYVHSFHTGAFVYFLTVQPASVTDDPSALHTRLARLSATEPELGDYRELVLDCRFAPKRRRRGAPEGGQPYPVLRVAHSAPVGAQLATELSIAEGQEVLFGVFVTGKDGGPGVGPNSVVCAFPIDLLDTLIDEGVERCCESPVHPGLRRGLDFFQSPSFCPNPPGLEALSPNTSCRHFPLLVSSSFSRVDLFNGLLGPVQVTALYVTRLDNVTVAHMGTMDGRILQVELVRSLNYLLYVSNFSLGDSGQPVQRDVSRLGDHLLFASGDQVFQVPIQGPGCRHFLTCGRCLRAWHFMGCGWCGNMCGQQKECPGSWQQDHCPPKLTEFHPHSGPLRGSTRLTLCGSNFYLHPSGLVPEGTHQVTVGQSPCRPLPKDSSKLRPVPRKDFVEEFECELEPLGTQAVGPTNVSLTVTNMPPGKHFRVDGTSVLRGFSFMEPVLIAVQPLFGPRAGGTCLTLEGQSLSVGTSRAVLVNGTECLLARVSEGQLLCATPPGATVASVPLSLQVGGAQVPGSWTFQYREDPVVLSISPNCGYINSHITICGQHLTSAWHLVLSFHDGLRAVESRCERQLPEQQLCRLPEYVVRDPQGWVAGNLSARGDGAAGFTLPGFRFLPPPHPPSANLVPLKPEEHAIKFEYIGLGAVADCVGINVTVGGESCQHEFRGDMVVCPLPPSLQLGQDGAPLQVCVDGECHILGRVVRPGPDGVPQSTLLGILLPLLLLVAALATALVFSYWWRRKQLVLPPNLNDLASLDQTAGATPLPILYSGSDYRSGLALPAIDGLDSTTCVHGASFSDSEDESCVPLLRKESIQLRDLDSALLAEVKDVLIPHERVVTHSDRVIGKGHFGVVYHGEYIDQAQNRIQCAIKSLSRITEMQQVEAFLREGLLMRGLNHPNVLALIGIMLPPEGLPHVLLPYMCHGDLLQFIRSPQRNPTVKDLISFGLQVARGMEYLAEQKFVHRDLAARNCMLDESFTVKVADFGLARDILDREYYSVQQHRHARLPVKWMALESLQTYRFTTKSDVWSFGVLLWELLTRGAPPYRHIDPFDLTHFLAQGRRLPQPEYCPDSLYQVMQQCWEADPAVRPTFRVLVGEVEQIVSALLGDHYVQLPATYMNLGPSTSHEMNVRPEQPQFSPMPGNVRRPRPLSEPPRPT

The inhibition is the share of the control response that was lost under treatment. `COc1cc(CCOC(=O)/C=C/c2cc(OC)c(O)c(OC)c2)ccc1O` [Compound 8, (E)-4-hydroxy-3-methoxyph-ethyl 3-(4-hydroxy-3,5-dimethoxyphenyl) acrylate]: the HGF-induced cell scattering entry in data set [1] (33 ng/mL HGF) is “significantly reduced; also recorded: appeared to block”. In addition, the EGF-induced cell scattering entry in data set [1] (100 ng/mL EGF, similar treatment doses) is recorded as “do not block; also recorded: not inhibited”. Moreover, the LDH release result in data set [2] is “minimal LDH release”. The “effect on T47-D cells which lack c-Met” value in data set [3] was “no discernable effects”. The HGF-induced migration result in data set [4] was “appears to inhibit”. Also, the inhibition at 10 µM in data set [5] came out at 15%; in data set [6], 80%.
